These results are taken from patent US11865103B2, “Methods of treating disorders associated with glycosylation defective proteins” (CASE WESTERN RESERVE UNIVERSITY, priority 2016, dated 2024).

This assay relates to hCLRN1^N48K-YFP; clrn1^KO/KO larvae. Briefly: Startle response and swimming/balance behavior of ART treated hCLRN1^N48K-YFP; clrn1^KO/KO larvae. In kind it is in vivo, zebrafish. As for the experimental part:
The startle response and swimming behavior of the clrn1^+/+ larvae, clrn1^KO/KO larvae, hCLRN1-YFP; clrn1^KO/KO larvae and hCLRN1^N48K-YFP; clrn1^KO/KO larvae were recorded at 6.5dpf, 10.5dpf, 16.5dpf and 27dpf as described earlier (Table-1). The extracellular microphonics potentials were recorded at 6dpf to confirm the hair cell function in these humanized zebrafish models for hCLRN1 (hCLRN1-YFP; clrn1^KO/KO larvae larvae) and USH3-CLRN1^N48Kmutant (hCLRN1^N48K-YFP; clrn1^KO/KO larvae) as described earlier (FIG. 5).
At 6.5 dpf, clrn1^+/+ larvae often tend to swim towards the middle or closer to surface of the water (E3 medium) in the Petri dish, and escape swiftly from the field of view when startled (by tapping the Petri dish with a metal probe). At 6.5 dpf, hCLRN1^N48K-YFP; clrn1^KO/KO larvae (n=40) were hard to distinguish from clrn1^+/+ larvae in a Petri dish when viewed from the top. […] To monitor hair cell function in the hCLRN1^N48K-YFP; clrn1^KO/KO zebrafish, larvae from several clutch were observed longitudinally from 6.5 to 27 dpf for survival, swimming behavior and startle response (Table 1). […] However, 5% of the hCLRN1^N48K-YFP; clrn1^KO/KO zebrafish do survive long enough to be able to breed like its clrn1^+/+ counterpart. […] In this model, hair cells expressing hCLRN1^N48K retained hair bundle structure and function for a longer duration than clrn1^KO/KO hair cells, consistent with previous report ‘USH3-CLRN1Y176X individuals develop severe hearing loss earlier in life compared with CLRN1^N48K individuals’. This new model for inner ear disorder associated with hCLRN1^N48K mutation will be useful to identify therapeutic agents to prevent progressive loss of hair cell function in USH3-CLRN1^N48K mutant individuals.
To verify the degree of overall rescue in swimming behavior (hair cell function) and prolongation of life span by ART treatment in the hCLRN1^N48K-YFP; clrn1^KO/KO zebrafish larvae, survival rate, swimming behavior and startle response were observed longitudinally from 6.5 to 27 dpf (Table 1). For this rescue experiment, we followed two regimens of ART treatment. Regimen I, 35 larvae from hCLRN1^N48K-YFP; clrn1^KO/KO genotype were treated with 0.4 uM ART from 3 to 7 dpf (5 days of treatment during inner ear development and hair cell maturation). Regimen II, 20 larvae from hCLRN1^N48K-YFP; clrn1^KO/KO genotype were treated with 0.4 uM ART from 3 to 12 dpf (10 days of treatment overlapping development and post-development of inner ear anatomy and hair cell maturation). At 6.5 dpf, the swimming behavior and startle response of hCLRN1^N48K-YFP; clrn1^KO/KO larvae from ART treatment regimen I and II, were indistinguishable from that of clrn1^+/+ and hCLRN1-YFP; clrn1^KO/KO larvae. About 75% (Regimen I+II: 41 larvae) of ART treated hCLRN1^N48K-YFP; clrn1^KO/KO larvae had clrn1^+/+ equivalent startle response. In regimen I and II, the survival rate and swimming behavior of hCLRN1^N48K-YFP; clrn1^KO/KO larvae beyond 25 dpf shown significant improvement from 5% in untreated hCLRN1^N48K-YFP; clrn1^KO/KO larvae to 40% (n=14) and 45% (n=[…]), respectively. […] Overall, result confirms that ART is not only able to correct the trafficking defect of hCLRN1^N48K protein, but also able to help in normal hair cell functioning of hair cells from hCLRN1^N48K-YFP; clrn1^KO/KO zebrafish and delay onset progressive loss of hair cell function.

[1] abbreviates: Regimen I: 0.4 μM ART from 3 to 7 dpf.

Each structure is given as a SMILES string.

With `C[C@@H]1CC[C@H]2[C@@H](C)C(=O)O[C@@H]3O[C@@]4(C)CC[C@@H]1[C@]32OO4` [ART, Artemisinin], the “Swimming behavior and startle response compared with clrn1^+/+ and hCLRN1-YFP; clrn1^KO/KO larvae” value (ART treatment regimen I and II, 6.5 dpf) is listed as “indistinguishable”. Also, the “Larvae with clrn1^+/+ equivalent startle response” value (Regimen I+II, 0.4 uM ART, 6.5 dpf) is on record as “About 75%”. Under setting [1], the “% of abnormal swimming-balance (6.5 dpf)” value turned out to be 25.71%, the “% of normal swimming-balance (>25 dpf)” value was 40% and the “% showing startle response at 6.5 dpf” value turned out to be 100%. Moreover, the “% of normal swimming-balance (>25 dpf)” value (Regimen II: 0.4 μM ART from 3 to 12 dpf) came to 45%.
